Measured values published in patent US20010047099A1, “4-aminopicolinates and their use as herbicides” (priority 2000, published 2001).

How the values were obtained:
Type in all cases: in vivo
[1] = system: cocklebur (Xanthium strumarium); assay: Postemergence herbicidal activity; details: Table 1, visual, after 2 weeks
Procedure: (§1) Seeds of the desired test plant species were planted in Grace-Sierra MetroMix® 306 planting mixture, which typically has a pH of 6.0 to 6.8 and an organic matter content of about 30 percent, in plastic pots with a surface area of 64 square centimeters. When required to ensure good germination and healthy plants, a fungicide treatment and/or other chemical or physical treatment was applied. The plants were grown for 7-21 days in a greenhouse with an approximate 15 hr photoperiod which was maintained at about 23-29° C. during the day and 22-28° C. during the night. Nutrients and water were added on a regular basis and supplemental lighting was provided with overhead metal halide 1000-Watt lamps as necessary. The plants were employed for testing when they reached the first or second true leaf stage.
(§2) A weighed amount, determined by the highest rate to be tested, of each test compound was placed in a 20 mL glass vial and was dissolved in 4 mL of a 97:3 v/v (volume/volume) mixture of acetone and dimethyl sulfoxide (DMSO) to obtain concentrated stock solutions. […] The concentrated stock solutions obtained were diluted with an aqueous mixture containing acetone, water, isopropyl alcohol, DMSO, Atplus 411F crop oil concentrate, and Triton X-155 surfactant in a 48.5:39:10:1.5:1.0:0.02 v/v ratio to obtain spray solutions of known concentration. The solutions containing the highest concentration to be tested were prepared by diluting 2 mL aliquots of the stock solution with 13 mL of the mixture and lower concentrations were prepared by serial dilution of the stock solution. Approximately 1.5 mL aliquots of each solution of known concentration were sprayed evenly onto each of the test plant pots using a DeVilbiss atomizer driven by compressed air pressure of 2 to 4 psi ([…]) to obtain thorough coverage of each plant. Control plants were sprayed in the same manner with the aqueous mixture. In this test an application rate of 1 ppm results in the application of approximately 1 g/Ha.
(§3) The treated plants and control plants were placed in a greenhouse as described above and watered by sub-irrigation to prevent wash-off of the test compounds. After 2 weeks the condition of the test plants as compared with that of the untreated plants was determined visually and scored on a scale of 0 to 100 percent where 0 corresponds to no injury and 100 corresponds to complete kill.

[2] = system: chickweed (Stellaria media); assay: Postemergence herbicidal activity; details: Table 1, visual, after 2 weeks
Procedure: as §1, §2, §3

[3] = system: wild buckwheat (Polygonum convolvulus); assay: Postemergence herbicidal activity; details: Table 1, visual, after 2 weeks
Procedure: as §1, §2, §3

[4] = system: velvetleaf (Abutilon theophrasti); assay: Preemergence herbicidal activity; details: Table 6 (headed Post-emergent; text: preemergence), after 3 weeks; for pest or weed control at 280 ppm: rate 280 ppm
Excerpt: (§4) Seeds of the desired test plant species were planted in a soil matrix prepared by mixing a loam soil (43 percent silt, 19 percent clay, and 38 percent sand, with a pH of about 8.1 and an organic matter content of bout 1.5 percent) and sand in a 70 to 30 ratio. The soil matrix was contained in plastic pots with a surface area of 113 square centimeters. When required to ensure good germination and healthy plants. a fungicide treatment and/or other chemical or physical treatment was applied.
(§5) A weighed amount, determined by the highest rate to be tested, of each test compound was placed in a 20 mL glass vial and was dissolved in 4 mL of a 97:3 v/v (volume/volume) mixture of acetone and dimethyl sulfoxide to obtain concentrated stock solutions. […] The stock solutions obtained were diluted with a 99.9:0.1 mixture of water and Tween® […] surfactant to obtain application solutions of known concentration. The solutions containing the highest concentration to be tested were prepared by diluting 2 mL aliquots of the stock solution with 15 mL of the mixture and lower concentrations were prepared by serial dilution of the stock solution. A 2.5 mL aliquot of each solution of known concentration was sprayed evenly onto the soil surface (113 sq. cm) of each seeded pot using a Cornwall 5.0 mL glass syringe fitted with a TeeJet TN-3 hollow cone nozzle to obtain thorough coverage of the soil in each pot. Control pots were sprayed in the same manner with the aqueous mixture.
(§6) The treated pots and control pots were placed in a greenhouse maintained with an approximate 15 hr photoperiod and temperatures of about 23-29° C. during the day and 22-28° C. during the night. Nutrients and water were added on a regular basis and supplemental lighting was provided with overhead metal halide 1000-Watt lamps as necessary. The water was added by top-irrigation. After 3 weeks the condition of the test plants that germinated and grew as compared with that of the untreated plants that germinated and grew was determined visually and scored on a scale of 0 to 100 percent where 0 corresponds to no injury and 100 corresponds to complete kill or no germination.

[5] = system: pigweed (Amaranthus retroflexus); assay: Preemergence herbicidal activity; details: Table 6 (headed Post-emergent; text: preemergence), after 3 weeks; for pest or weed control at 280 ppm: rate 280 ppm
Excerpt: as §4, §5, §6

[6] = system: morningglory (Ipomoea hederacea); assay: Preemergence herbicidal activity; details: Table 6 (headed Post-emergent; text: preemergence), after 3 weeks; for pest or weed control at 280 ppm: rate 280 ppm
Excerpt: as §4, §5, §6

[7] = Abutilon theophrasti, 504 h, read-out: % Control ABUTH
[8] = Amaranthus retroflexus, 504 h, read-out: % Control AMARE
[9] = Ipomoea, 504 h, read-out: % Control IPOHE
[10] = Xanthium strumarium, post-emergence, 336 h, rate 250 ppm, read-out: Post-emergent % Control XANST
[11] = Stellaria media, post-emergence, 336 h, rate 250 ppm, read-out: Post-emergent % Control STEME
[12] = Fallopia convolvulus, post-emergence, 336 h, rate 250 ppm, read-out: Post-emergent % Control POLCO

| Structure (SMILES) | Post-emergent % Control XANST ([1]; rate 125 ppm) | Post-emergent % Control STEME ([2]; rate 125 ppm) | Post-emergent % Control POLCO ([3]; rate 125 ppm) | % Control ABUTH ([4]; rate 560 ppm) | % Control AMARE ([5]; rate 560 ppm) | % Control IPOHE ([6]; rate 560 ppm) | Post-emergent % Control XANST ([1]; rate 250 ppm) | Post-emergent % Control STEME ([2]; rate 250 ppm) | Post-emergent % Control POLCO ([3]; rate 250 ppm) | further results |
| --- | --- | --- | --- | --- | --- | --- | --- | --- | --- | --- |
| CCCCOCCOC(=O)c1nc(Cl)cc(N)c1Cl [Compound 10, butoxyethyl 4-amino-3,6-dichloropyridine-2-carboxylate] | – | – | – | – | – | – | – | – | – | pest or weed control at 125 ppm ([1]; Xanthium strumarium, post-emergence, 336 h, rate 125 ppm, read-out: Post-emergent % Control XANST): 90%; pest or weed control at 125 ppm ([2]; Stellaria media, post-emergence, 336 h, rate 125 ppm, read-out: Post-emergent % Control STEME): 50%; pest or weed control at 125 ppm ([3]; Fallopia convolvulus, post-emergence, 336 h, rate 125 ppm, read-out: Post-emergent % Control POLCO): 100%; pest or weed control at 280 ppm [4, 7]: 100%; pest or weed control at 280 ppm [5, 8]: 100%; pest or weed control at 280 ppm [6, 9]: 100% |
| COC(=O)c1nc(Cl)cc(NC(C)=O)c1Cl [Compound 12, Methyl N-acetyl 4-amino-3,6-dichloropyridine-2-carboxylate] | 90% | 30% | 100% | 95% | 100% | 100% | – | – | – | – |
| Nc1c(F)c(Br)nc(C(=O)O)c1F [Compound 16, 4-Amino-3,5-difluoro-6-bromopyridine-2-carboxylic acid] | – | – | – | – | – | – | – | – | – | pest or weed control at 250 ppm [1, 10]: 60%; pest or weed control at 250 ppm [2, 11]: 30%; pest or weed control at 250 ppm [3, 12]: 70%; pest or weed control at 560 ppm ([4]; Abutilon theophrasti, 504 h, rate 560 ppm, read-out: % Control ABUTH): 0%; pest or weed control at 560 ppm ([5]; Amaranthus retroflexus, 504 h, rate 560 ppm, read-out: % Control AMARE): 70%; pest or weed control at 560 ppm ([6]; Ipomoea, 504 h, rate 560 ppm, read-out: % Control IPOHE): 80% |
| COC(=O)c1nc(Br)c(Br)c(N)c1Br [Compound 18, Methyl 4-amino-3,5,6-tribromopyridine-2-carboxylate] | – | – | – | – | – | – | – | – | – | pest or weed control at 250 ppm [1, 10]: 85%; pest or weed control at 250 ppm [2, 11]: 90%; pest or weed control at 250 ppm [3, 12]: 75%; pest or weed control at 280 ppm [4, 7]: 98%; pest or weed control at 280 ppm [5, 8]: 80%; pest or weed control at 280 ppm [6, 9]: 30% |
| Nc1c(Cl)c(C(=O)O)nc(Cl)c1Sc1ccccc1 [Compound 24, 4-Amino-3,6-dichloro-5-phenylthiopyridine-2-carboxylate] | – | – | – | 50% | 20% | 30% | 60% | 50% | 50% | – |
| CC(C)Nc1cc(Cl)nc(C(=O)O)c1Cl [Compound 28, 4-N-isopropylamino-3,6-dichloropyridine-2-carboxylic acid] | – | – | – | 100% | 100% | 100% | 95% | 90% | 95% | – |
| C=CCNc1cc(Cl)nc(C(=O)O)c1Cl [Compound 30, 4-N-allylamino-3,6-dichloropyridine-2-carboxylic acid] | – | – | – | 95% | 90% | 85% | 100% | 80% | 100% | – |
| O=C(O)c1nc(Cl)cc(NCCO)c1Cl [Compound 31, 4-N-hydroxyethylamino-3,6-dichloropyridine-2-carboxylic acid] | – | – | – | 95% | 95% | 100% | 40% | 30% | 70% | – |
| COCCNc1cc(Cl)nc(C(=O)O)c1Cl [Compound 32, 4-N-methoxyethylamino-3,6-dichloropyridine-2-carboxylic acid] | – | – | – | 90% | 70% | 90% | 80% | 20% | 100% | – |
| CN(O)c1cc(Cl)nc(C(=O)O)c1Cl [Compound 34, 4-N-hydroxy-N-methyl-amino-3,6-dichloropyridine-2-carboxylic acid] | 100% | 70% | 100% | 100% | 100% | 95% | – | – | – | – |
| CON(C)c1cc(Cl)nc(C(=O)O)c1Cl [Compound 35, 4-N-methoxy-N-methyl-3,6-dichloropyridine-2-carboxylic acid] | 90% | 60% | 100% | 90% | 95% | 85% | – | – | – | – |
| O=C(O)c1nc(Cl)cc(-n2cccc2)c1Cl [Compound 37, 4-pyrrolo-3,6-Dichloropyridine-2-carboxylic acid] | 90% | 70% | 90% | 100% | 100% | 95% | – | – | – | – |
| CN(C)C=Nc1cc(Cl)nc(C(=O)O)c1Cl [Compound 40, 4-N,N-Dimethylformamidino-3,6-dichloropyridine-2-carboxylic acid] | – | – | – | 100% | 100% | 100% | 100% | 90% | 100% | – |
